The results in this text go back to BindingDB's records for doi:10.1111/cbdd.12463 (University of California San Diego, 2015).

One test has as its target T1, Decaprenyl diphosphate synthase (Mycobacterium tuberculosis (strain CDC 1551 / Oshkosh), UniProt P9WFF6).
T1 sequence (P9WFF6 whole entry): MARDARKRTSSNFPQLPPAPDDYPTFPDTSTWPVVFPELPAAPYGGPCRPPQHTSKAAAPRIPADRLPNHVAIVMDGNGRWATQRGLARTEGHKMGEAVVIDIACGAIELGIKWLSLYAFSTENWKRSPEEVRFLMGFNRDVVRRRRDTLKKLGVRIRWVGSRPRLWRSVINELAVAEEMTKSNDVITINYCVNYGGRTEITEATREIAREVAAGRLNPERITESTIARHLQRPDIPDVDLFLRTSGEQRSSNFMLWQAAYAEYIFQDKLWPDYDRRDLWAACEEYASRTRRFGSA
Description: DPPS Inhibition (GPP based) Assay. Particulars: pH 7.5. From the text: We screened an in-house library of 43 compounds using GPP as substrate.
What is called IC50 is the concentration at which inhibition is half-maximal. Lower therefore signals higher potency. Turning to `CC(C)=CCC/C(C)=C/COc1ccc(C(=O)/C=C(\O)C(=O)O)cc1` [BPH-1379], the IC50 came out at 4.1 µM. This counts as single-digit micromolar. Still for that read-out and setting: as for `CCCCCCCCOc1ccc(C(=O)/C=C(\O)C(=O)O)cc1` [BPH-1330], the figure is 20 µM.

Consider `CCCCCCCCCCOc1cc(C(=O)Nc2ccc(S(N)(=O)=O)cc2C(=O)O)cc(C(=O)OC)c1` [BPH-1257], for which the IC50 was 1.1 µM. Same read-out and setting: to `CCCCCCCCCCCCCCOc1cc([N+](=O)[O-])ccc1C(=O)O` [BPH-965] belongs 1 µM. Same read-out and setting: as for `CCCCCCCCOc1cccc(P(=O)(CC(=O)C(=O)O)OCC)c1` (stereo unspecified) [BPH-1389], the figure is 2.6 µM; as for `CCCCCCCCCCCCCCSc1ccccc1C(=O)O` [BPH-948], 0.036 µM.

With `O=C(Nc1ccc(CCC2=NCCN2)cc1)c1ccc(C(=O)Nc2ccc(CCC3=NCCN3)cc2)cc1` [BPH-1413], the IC50 was 5.8 µM. The same measure, in the same setting: to `CCCCCCCCOc1cccc(C(=O)Nc2cc(S(C)(=O)=O)ccc2C(=O)O)c1` [BPH-1467] belongs 0.138 µM; to `CCCCCCCCCCOc1cccc(C(=O)Nc2ccc(S(N)(=O)=O)cc2C(=O)O)c1` [BPH-1256], 0.041 µM; to `O=C(/C=C/c1ccc(O)c(O)c1)OC1CC(O)(C(=O)O)CC(O)C1O` (stereo unspecified) [BPH-1068], 2.3 µM. `CCCCCCC1=C(C[N+](C)(C)C)C(=O)c2ccccc2C1=O` [BPH-1474] displayed an IC50 of 7 µM. Still for that read-out and setting: as for `CCCCCCOc1ccc(C(=O)/C=C(\O)C(=O)O)cc1` [BPH-1378], the figure is 10 µM; as for `CCn1c2ccccc2c2cc(NC(=O)/C=C(\O)C(=O)O)ccc21` [BPH-1149], 2 µM. Still for that read-out and setting: as for `CCCCCCCCOc1cccc(C(=O)N(C)c2cccc(P(=O)(O)O)c2)c1` [BPH-1433], the figure is 0.49 µM.

As to `CCCCCCCCOc1cccc(C(=O)Nc2ccccc2P(=O)(O)O)c1` [BPH-1440], the IC50 was 0.76 µM. Still for that read-out and setting: to `CCCCCCCCOc1cccc(CNC(=O)/C=C(\O)C(=O)O)c1` [BPH-1305] belongs 6.3 µM.

In turn, `C/C=C\C(=C/CC(=O)Nc1ccc(OC(F)(F)F)cc1C(=O)O)OCCCCCCCC` [BPH-1477] displayed an IC50 of 0.043 µM.

As to `CCCCCCCCOc1cccc(C(=O)Nc2ccc(Cl)cc2C(=O)O)c1` [BPH-1466], the IC50 turned out to be 0.156 µM. For `CCCCCCCCOc1cccc(C(=O)Nc2cc(F)c(F)cc2C(=O)O)c1` [BPH-1455], the midpoint of inhibition, the IC50, lay at 0.279 µM.

`CCCCCCCCOc1cccc(C(=O)Nc2cccc(P(=O)(O)O)c2)c1` [BPH-1432]: half-maximal inhibition (IC50) required 0.21 µM.

Compound `NCCc1cc(Br)cc(C#Cc2ccc(C#Cc3cc(Br)cc(CCN)c3)cc2)c1` [BPH-1419] had an IC50 of 0.57 µM. In turn, `NC(=O)c1cc(NC(=O)c2ccc(C(=O)Nc3cc(C(N)=O)cc(C4=NCCN4)c3)cc2)cc(C2=NCCN2)c1` [100873, 18] registered an IC50 of 8.4 µM. On the same count and under the same terms, as for `O=P(O)(O)C(O)(Cc1cccc(-c2cccc(NS(=O)(=O)c3cccc(S(=O)(=O)Nc4cccc(-c5cccc(CC(O)(P(=O)(O)O)P(=O)(O)O)c5)c4)c3)c2)c1)P(=O)(O)O` [BPH-789], the figure is 0.36 µM; as for `CCCCCCCCCCOc1cccc(COc2ccccc2C(=O)O)c1` [BPH-1150], 0.7 µM; as for `NCCc1cccc(C#Cc2ccc(C#Cc3cccc(CCN)c3)cc2)c1` [BPH-1427], 3.2 µM. Same read-out and setting: to `CCCCCCCCCCCCOc1cccc(O)c1C(=O)O` [BPH-1065] belongs 4.5 µM; to `CCCCCCCCCCOc1cccc(COc2ccc(S(=O)(=O)N3CCN(C(C)=O)CC3)cc2C(=O)O)c1` [BPH-1165], 3 µM; to `CCCCCCCOc1cccc(C(=O)Nc2ccccc2C(=O)O)c1` [BPH-1167], 0.133 µM.

A further test has as its target T1, Decaprenyl diphosphate synthase. Description: DPPS Inhibition (cis FPP based) Assay. Particulars: pH 7.5. From the text: We screened an in-house library of 19 compounds using cis-FPP as substrate.
On to `CCCCCCCCOc1cccc(C(=O)Nc2ccc(S(N)(=O)=O)cc2C(=O)O)c1` [BPH-1255], for which the IC50 worked out at 65 µM. For the compound `CCCCCCCCOc1cccc(CO/C=C/C=C(\C=C\C(=O)O)S(=O)(=O)N(C)C)c1` [BPH-1152], inhibition was half-maximal at 83 µM (IC50). Still for that read-out and setting: to `O=C(O)/C(O)=C/C(=O)c1ccc(N2CCN(C(=O)c3cccc(-c4ccccc4)c3)CC2)cc1` [BPH-1381] belongs 15 µM.

For another test the target is unchanged. The experiment in a line: DPPS Inhibition (trans FPP based) Assay. The following applies: pH 7.5. From the text: We screened an in-house library of 53 compounds using trans-FPP as substrate.
The compound `C=CC/C=C\C/C=C\CCCCCCCc1cccc(O)c1C(=O)O` [6-[8(Z),11(Z),14-pentadecatrienyl]salicylic acid] showed an IC50 of 280 µM. Same read-out and setting: to `CCCCCCCCCCCCOc1ccc[n+](CC(P(=O)(O)O)P(=O)(O)O)c1` [BPH-716] belongs 77 µM; to `O=P(O)(O)C(O)(Cc1ccc(-c2cccc(-c3ccccc3)c2)cc1)P(=O)(O)O` [BPH-625], 291 µM.

The compound `O=P(O)(O)C(O)(Cc1ccc(-c2cccc(NS(=O)(=O)c3ccc(-c4ccccc4)cc3)c2)cc1)P(=O)(O)O` [BPH-781] came in with an IC50 of 66 µM. On to `O=P(O)(O)C(O)(Cc1ccc(-c2cccc(NS(=O)(=O)c3ccc4ccccc4c3)c2)cc1)P(=O)(O)O` [BPH-780], for which inhibition was half-maximal at 3.8 µM (IC50). For the compound `O=P(O)(O)C(C[n+]1ccc(-c2ccc(-c3ccccc3)cc2)cc1)P(=O)(O)O` [BPH-632], the IC50 was 498 µM. Compared with the last compound, the IC50 is about 130-fold higher. On to `O=P(O)(O)[C@@H](CCCc1cccc(Oc2ccccc2)c1)S(=O)(=O)O` [BPH-652], for which the IC50 came out at 113 µM. `CCCCCCCCc1cc[n+](CC(P(=O)(O)O)P(=O)(O)O)cc1` [BPH-717] returned an IC50 of 113 µM.

Take `O=P(O)(O)C(Nc1cccc(-c2ccccc2)c1)P(=O)(O)O` [[(Biphenyl-3-ylamino)-phosphono-methyl]-phosphonic acid]: the IC50 was 6.3 µM. The compound `O=P(O)(O)C(O)(CCc1ccc(-c2ccccc2)cc1)P(=O)(O)O` [BPH-665] showed a half-maximal inhibitory concentration (IC50) of 13 µM. In turn, `O=P(O)([CH2][Na])C(O)(Cc1ccc(-c2ccccc2)cc1)P(=O)(O)[CH2][Na]` (stereo unspecified) [BPH-310] came in with an IC50 of 8.8 µM.

`O=P(O)(O)C(O)(CCc1cccc(-c2ccccc2-c2ccccc2)c1)P(=O)(O)O` [BPH-621]: the midpoint of inhibition, the IC50, lay at 30 µM. Take `O=P(O)(O)C(O)(Cc1cccc(-c2ccc(F)cc2F)c1)P(=O)(O)O` [[2-(2',4'-Difluoro-biphenyl-3-yl)-1-hydroxy-1-phosphono-ethyl]-phosphonic acid]: the concentration for half-maximal inhibition (IC50) stood at 4.3 µM. On the same count and under the same terms, as for `O=P(O)(O)C(CCCc1ccc(-c2ccccc2)cc1)P(=O)(O)O` [(4-Biphenyl-4-yl-1-phosphono-butyl)-phosphonic acid], the figure is 1.6 µM. Still for that read-out and setting: as for `O=P(O)(O)C(O)(CCc1cccc(-c2cccc3c2oc2ccccc23)c1)P(=O)(O)O` [BPH-646], the figure is 363 µM; as for `CCCCCCCCCCCCSc1ccccc1C(=O)O` [BPH-940], 127 µM; as for `O=P(O)(O)C(O)(Cc1cccc(-c2cccc(NS(=O)(=O)c3ccc4ccccc4c3)c2)c1)P(=O)(O)O` [(1-hydroxy-2-{3-[3-(naphthalene-2-sulfonamido)phenyl]phenyl}-1-phosphonoethyl)phosphonic acid], 8.2 µM. Same read-out and setting: to `O=P(O)(O)C(Nc1ccc(-c2ccccc2)cc1)P(=O)(O)O` [(biphenyl-4-ylamino)methylenediphosphonic acid] belongs 4.6 µM. In turn, `O=P(O)(O)C(O)(Cc1cccc(-c2ccccc2)c1)P(=O)(O)O` [BPH-294] yielded an IC50 of 7.5 µM. `O=P(O)(O)C(O)(Cc1cccc(-c2ccc(-c3ccccc3)cc2)c1)P(=O)(O)O` [{1-hydroxy-2-[3-(4-phenylphenyl)phenyl]-1-phosphonoethyl}phosphonic acid] registered an IC50 of 31 µM. On the same count and under the same terms, to `O=P(O)(O)C(O)(Cc1ccc(-c2ccc(-c3ccccc3)cc2)cc1)P(=O)(O)O` [BPH-626] belongs 51 µM; to `O=P(O)(O)C(O)(Cc1cccc(-c2cc(F)cc(F)c2)c1)P(=O)(O)O` [BPH-309], 1.7 µM; to `O=P(O)(O)C(O)(Cc1cccc(-c2cccc(NS(=O)(=O)c3cccc(S(=O)(=O)Nc4cccc(-c5cccc(CC(O)(P(=O)(O)O)P(=O)(O)O)c5)c4)c3)c2)c1)P(=O)(O)O` [BPH-789], 5.4 µM. In the case of `C=CCN(C)CCCCCCCCCCCCCCCC(=O)OC` [BPH-922], the IC50 came out at 620 µM.

In the case of `O=P(O)(O)C(O)(Cc1ccc(-c2ccc(Cl)cc2)cc1)P(=O)(O)O` [[2-(4'-Chloro-biphenyl-4-yl)-1-hydroxy-1-phosphono-ethyl]-phosphonic acid], the IC50 turned out to be 1.5 µM. Against the preceding compound, the IC50 is about 410-fold lower. Still for that read-out and setting: as for `O=C(c1ccccc1)c1ccc(OCCCCCC[n+]2ccccc2)cc1` [BPH-921], the figure is 880 µM.

Compound `O=P(O)(O)C(CNc1cccc(-c2ccccc2)c1)P(=O)(O)O` [2-(biphenyl-3-ylamino)ethane-1,1-diyldiphosphonic acid] displayed an IC50 of 17 µM. This IC50 lies about 52-fold lower than the previous one. The same measure, in the same setting: to `O=P(O)(O)C(O)(c1cccc(-c2ccccc2)c1)P(=O)(O)O` [(biphenyl-3-yl-hydroxy-phosphono-methyl)-phosphonic acid] belongs 40 µM; to `O=P(O)(O)C(O)(Cc1ccc(-c2ccccc2-c2ccccc2)cc1)P(=O)(O)O` [BPH-624], 5.4 µM. As for `O=P(O)(O)C(O)(Cc1cccc(-c2cccc(NS(=O)(=O)c3ccc(-c4ccccc4)cc3)c2)c1)P(=O)(O)O` [BPH-782], the IC50 was determined as 23 µM. Compound `O=P(O)(O)C(O)(c1ccc(-c2ccccc2)cc1)P(=O)(O)O` [(Biphenyl-4-yl-hydroxy-phosphono-methyl)-phosphonic acid] showed an IC50 of 17 µM. Same read-out and setting: as for `O=P(O)(O)C(O)(CCc1cccc(-c2cccc(-c3ccccc3)c2)c1)P(=O)(O)O` [BPH-622], the figure is 55 µM; as for `O=P(O)(O)C(O)(Cc1cccc(-c2cccc(-c3ccccc3)c2)c1)P(=O)(O)O` [{1-hydroxy-2-[3-(3-phenylphenyl)phenyl]-1-phosphonoethyl}phosphonic acid], 18 µM; as for `CCCCCCCCCCCCNCC(P(=O)(O)O)P(=O)(O)O` [1-[(n-Dodec-1-ylamino)ethyl]1,1-bisphosphonic acid], 370 µM. On the same count and under the same terms, to `O=P(O)(O)C(C[n+]1ccc(-c2cccc3c2oc2ccccc23)cc1)P(=O)(O)O` [BPH-642] belongs 114 µM.
